Each molecule was assayed against T1, Dual specificity protein phosphatase 6 (Rattus norvegicus, UniProt Q64346) (assay: MKP-3 phosphatase inhibitors, repeat potency, dose response, biochemical, rat DUSP6, reproducibility testing, probe assessment (AID 566)).
T1 sequence (Q64346 whole entry): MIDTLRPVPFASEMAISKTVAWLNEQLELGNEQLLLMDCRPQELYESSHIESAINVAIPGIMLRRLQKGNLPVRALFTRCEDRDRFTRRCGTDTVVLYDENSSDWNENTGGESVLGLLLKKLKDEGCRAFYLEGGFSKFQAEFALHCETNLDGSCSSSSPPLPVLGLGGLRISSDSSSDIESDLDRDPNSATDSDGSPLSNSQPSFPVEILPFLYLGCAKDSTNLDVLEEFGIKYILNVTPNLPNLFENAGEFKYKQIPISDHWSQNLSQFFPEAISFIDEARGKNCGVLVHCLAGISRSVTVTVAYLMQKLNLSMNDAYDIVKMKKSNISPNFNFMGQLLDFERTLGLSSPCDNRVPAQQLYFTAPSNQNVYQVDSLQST

Row | SMILES | IC50 [µM]
1 | COc1ccc(-c2cc3nc(C4CCN(C(=O)OC(C)(C)C)CC4)c(C(=O)O)cn3n2)cc1 [2-(4-methoxyphenyl)-5-[1-[(2-methylpropan-2-yl)oxy-oxomethyl]-4-piperidinyl]-6-pyrazolo[1,5-a]pyrimidinecarboxylic acid] | > 50
2 | Cc1nc2cc(-c3cccc(F)c3)nn2c(C)c1CCC(=O)N1CCC2(CC1)OCCO2 [1-(1,4-dioxa-8-azaspiro[4.5]decan-8-yl)-3-[2-(3-fluorophenyl)-5,7-dimethyl-6-pyrazolo[1,5-a]pyrimidinyl]-1-propanone] | > 50
3 | Cc1ccc(-c2csc(NC(=O)c3ccno3)n2)cc1 [MLS000081820] | > 50
4 | O=C(NC1(O)C(=O)c2ccccc2C1=O)c1ccccc1 [N-(2-hydroxy-1,3-dioxo-2-indenyl)benzamide] | 19.9
5 | COCCCn1c(N)c(C(=O)NCCC(C)C)c2nc3ccccc3nc21 [MLS000041744] | > 50
6 | Cc1cc(C)n2c(SCC(=O)N3CCN(S(=O)(=O)c4ccc(Cl)cc4)CC3)nnc2n1 [1-[4-(4-chlorophenyl)sulfonyl-1-piperazinyl]-2-[(5,7-dimethyl-[1,2,4]triazolo[4,3-a]pyrimidin-3-yl)thio]ethanone] | > 50
7 | Cc1nc2c(C(=O)NCCC3=CCCCC3)c[nH]n2c(=O)c1Cl [6-chloro-N-(2-cyclohex-1-en-1-ylethyl)-7-hydroxy-5-methylpyrazolo[1,5-a]pyrimidine-3-carboxamide] | > 50
8 | CCCCn1c(NC(=O)c2ccccc2)c(C#N)c2nc3ccccc3nc21 [SMR000060333] | 18.4
9 | Cn1ncnc2c(=O)n(C)c(=O)nc1-2 | 0.535
10 | N#Cc1c(NC(=O)c2ccc(Br)o2)n(-c2ccccc2)c2nc3ccccc3nc12 [5-bromanyl-N-(3-cyano-1-phenyl-pyrrolo[3,2-b]quinoxalin-2-yl)furan-2-carboxamide] | 15.5
11 | FC(F)(F)c1ccc(N2CCOCC2)c(Nc2nc3ccccc3n3cnnc23)c1 [MLS000093276] | > 50
12 | CCc1ccc(NC(=O)CSc2nc3ccccc3c(=O)n2CCN2CCOCC2)cc1 [MLS000095236] | > 50
13 | COC(=O)c1ccccc1NC(=O)CN1C(=O)C2CCCN2c2ncc(Cl)cc21 (configuration not stated) [MLS000094302] | > 50
14 | CCOc1ccc(-c2cc3nc(C4CCN(C(=O)OC(C)(C)C)CC4)c(C(=O)O)cn3n2)cc1 [2-(4-ethoxyphenyl)-5-[1-[(2-methylpropan-2-yl)oxy-oxomethyl]-4-piperidinyl]-6-pyrazolo[1,5-a]pyrimidinecarboxylic acid] | > 50
15 | O=C(c1cccs1)c1no[n+]([O-])c1C(=O)c1cccs1 [(5-oxidanidyl-4-thiophen-2-ylcarbonyl-1,2,5-oxadiazol-5-ium-3-yl)-thiophen-2-yl-methanone] | > 50
16 | CC(C)Sc1nc2sc3c(c2c2nnc(SCC(=O)NCc4ccco4)n12)CCCC3 [MLS000082957] | > 50
17 | Cc1cccc(N2CCN(C(=O)Cc3c(C(=O)O)[nH]c4ccc(Cl)cc34)CC2)c1C [5-chloranyl-3-[2-[4-(2,3-dimethylphenyl)piperazin-1-yl]-2-oxidanylidene-ethyl]-1H-indole-2-carboxylic acid] | > 50
18 | CCn1nc(-c2cccs2)nc2c(=O)n(C)c(=O)nc1-2 [1-ethyl-6-methyl-3-thiophen-2-yl-pyrimido[5,4-e][1,2,4]triazine-5,7-dione] | 0.445
19 | CCOC(=O)c1ccc2c(c1)C1C=CCC1C(C(=O)O)N2 (configuration not stated) [MLS-0025126.0001] | > 50

Row | SMILES | IC50 [µM]
20 | O=C1C=Cc2ccccc2C1=O [1,2-dihydronaphthalene-1,2-dione] | > 50
21 | O=C1c2ccccc2-c2onc3ccc(NCCCn4ccnc4)c1c23 [SMR000044769] | > 50
22 | CC(C)Cn1c(N)c(C(=O)COC(=O)c2cc(-c3ccco3)nc3ccccc23)c(=O)n(C)c1=O [2-(2-furanyl)-4-quinolinecarboxylic acid [2-[4-amino-1-methyl-3-(2-methylpropyl)-2,6-dioxo-5-pyrimidinyl]-2-oxoethyl] ester] | > 50
23 | O=C(Nc1ccc2nc(-c3ccco3)c(-c3ccco3)nc2c1)N1CCCCCC1 | > 50
24 | Nc1nc2c(s1)CCc1c-2cnn1-c1ccccc1 [MLS000085948] | > 50
25 | CCCCCC#CCC#CCC#CCC#CCCCC(=O)O | > 50
26 | [O-]/[N+](=C\c1ccc(OC(F)F)cc1)c1ccccc1 [1-[4-(difluoromethoxy)phenyl]-N-phenylmethanimine oxide] | > 50
27 | COc1ccc(-n2c(NC(=O)c3ccco3)c(C#N)c3nc4ccccc4nc32)cc1 [MLS000079925] | 14.2
28 | Nc1c(N2CCCC2)cc(Cl)c2nonc12 [(7-chloro-5-pyrrolidino-benzofurazan-4-yl)amine] | > 50
29 | N#Cc1c(N2CCCC2)nc(N)c2c(N)nc(N3CCCC3)cc12 [SMR000061605] | 3.43
30 | O=C1C(=C2C(=O)c3ccccc3C2=O)Nc2ccccc21 [MLS000071738] | > 50
31 | CCOc1cc(/C=C(/C#N)c2ccc(F)cc2)ccc1OCc1ccc(C(=O)O)o1 [5-[[4-[(E)-2-cyano-2-(4-fluorophenyl)ethenyl]-2-ethoxyphenoxy]methyl]furan-2-carboxylic acid] | > 50
32 | Cc1ccc(/C=C/C2=Cc3c(sc(NC(=O)CSc4nnc(N)[nH]4)c3C#N)C(C)(C)C2)o1 [2-[(5-azanyl-1H-1,2,4-triazol-3-yl)sulfanyl]-N-[3-cyano-7,7-dimethyl-5-[(E)-2-(5-methylfuran-2-yl)ethenyl]-6H-1-benzothiophen-2-yl]ethanamide] | > 50
33 | CC(=O)[C@@H]1[C@@H]2C(=O)N(c3ccc(F)c(Cl)c3)C(=O)[C@@H]2C2c3ccccc3C=CN21 (some centres not stated) [MLS000040594] | 47.1
34 | CCCCNC(=O)c1c(N)n(CCCOC)c2nc3ccccc3nc12 [2-amino-N-butyl-1-(3-methoxypropyl)-3-pyrrolo[3,2-b]quinoxalinecarboxamide] | > 50
35 | CCOc1ccc2noc3c2c1C(=O)c1ccccc1-3 [MLS000106837] | > 50
36 | COc1cc(/C=C(/C#N)c2ccc(F)cc2)ccc1OCc1ccc(C(=O)O)o1 [5-({4-[2-cyano-2-(4-fluorophenyl)vinyl]-2-methoxyphenoxy}methyl)-2-furoic acid] | > 50
37 | CCCSc1nnc(NC(=O)c2sc3nc(-c4cccs4)ccc3c2N)s1 [3-amino-N-(5-propylsulfanyl-1,3,4-thiadiazol-2-yl)-6-thiophen-2-ylthieno[2,3-b]pyridine-2-carboxamide] | > 50
38 | CCn1c(SCC(=O)Nc2ccc3c(c2)c2ccccc2n3CC)nnc1-c1ccco1 [MLS000050867] | > 50

Row | SMILES | IC50 [µM]
39 | CCCCn1c(SCC(=O)c2ccc(OC)cc2OC)nc2cc(S(N)(=O)=O)ccc21 [1-butyl-2-[2-(2,4-dimethoxyphenyl)-2-oxidanylidene-ethyl]sulfanyl-benzimidazole-5-sulfonamide] | > 50
40 | COc1ccc(Br)cc1C=c1sc2nc(-c3ccco3)nn2c1=O [5-[(5-bromanyl-2-methoxy-phenyl)methylidene]-2-(furan-2-yl)-[1,3]thiazolo[3,2-b][1,2,4]triazol-6-one] | > 50
41 | [O-]/[N+](=C\c1ccncc1)c1ccccc1 | > 50
42 | CC(C)(C)N1C(=O)Cc2c1nc(N)c1c(N)nc(N3CCCCC3CO)c(C#N)c21 (configuration not stated) [5,6-bis(azanyl)-3-tert-butyl-8-[2-(hydroxymethyl)piperidin-1-yl]-2-oxidanylidene-1H-pyrrolo[2,3-c][2,7]naphthyridine-9-carbonitrile] | > 50
43 | O=C(Nc1ccccc1)c1ccc2nc(-c3ccco3)c(-c3ccco3)nc2c1 [2,3-di-2-furyl-N-phenyl-6-quinoxalinecarboxamide] | > 50
44 | O=C(OC1CCCCC1)c1ccc2c(c1)C1C=CCC1C(C(=O)O)N2 (configuration not stated) [SMR000019385] | > 50
45 | COc1ccc(Cn2c(C)nc3c(c2=O)c2nc4ccccc4nc2n3Cc2ccco2)cc1 [MLS000079944] | > 50
46 | O=C1C=C(NCc2ccc(Cl)c(Cl)c2)CC1 [3-[(3,4-dichlorobenzyl)amino]cyclopent-2-en-1-one] | > 50
47 | CCCCCNC(=O)c1ccc2c(=O)[nH]c3c(C(=O)NCC4CCCO4)sc(=S)n3c2c1 (configuration not stated) [5-oxo-N3-(2-oxolanylmethyl)-N8-pentyl-1-sulfanylidene-4H-thiazolo[3,4-a]quinazoline-3,8-dicarboxamide] | > 50
48 | [O-]/[N+](=C/c1ccc(F)cc1)c1ccccc1 [(E)-(4-fluorobenzylidene)(phenyl)azane oxide] | > 50
49 | COc1ccc2noc3c2c1C(=O)c1ccccc1-3 [MLS000106874] | 22.6
50 | CC1=C(/C=C/C(C)=C/C=C/C(C)=C/C(=O)O)C(C)(C)CCC1 [ALL-TRANS-RETINOIC ACID] | > 50
51 | Cc1ccc(C)n1-c1cccc(C(=O)O)c1 | > 50
52 | Cc1c(N=c2c(=O)c3ccccc3c2=O)c(=O)n(-c2ccccc2)n1C [MLS000105950] | 8.19
53 | CCn1nc(-c2ccccc2)nc2c(=O)n(C)c(=O)nc1-2 [1-Ethyl-6-methyl-3-phenyl-1H-pyrimido[5,4-e][1,2,4]triazine-5,7-dione] | 0.568
54 | Cc1cccc(NC(=O)c2cc(NC(=O)C3CCCCC3C(=O)O)ccc2N2CCCCC2)c1 (configuration not stated) [2-({[3-{[(3-methylphenyl)amino]carbonyl}-4-(1-piperidinyl)phenyl]amino}carbonyl)cyclohexanecarboxylic acid] | > 50
55 | N#Cc1c(N)sc(=S)c2c1CCN(Cc1ccccc1)C2 [3-Amino-7-benzyl-1-thioxo-5,6,7,8-tetrahydro-1H-thiopyrano[3,4-c]pyridine-4-carbonitrile] | 2.08
56 | O=C1Nc2ccccc2SC(c2ccccc2)C1O (configuration not stated) [3-hydroxy-2-phenyl-2,3-dihydro-1,5-benzothiazepin-4(5H)-one] | > 50
57 | Cc1cc(NC(=O)c2ccc(S(=O)(=O)N3CCCC3)cc2)nc2c1c(=O)oc1ccccc12 [MLS000091355] | > 50

Source: BindingDB's records for doi:10.7270/Q2G73C2Z (University of Pittsburgh, 2007)
